Assay results from US20250177299A1, “MOLECULAR COMPLEXING METHOD, FORMULATION AND MANUFACTURING FOR ENHANCED NUTRIENT DELIVERY” (Ingredient Fusion, LLC, priority 2021, published 2025).
Read-outs that look alike come from different tables or passages of the source.

Assay: long term formulation trials of natural stability and dispersion aids
Assay type: physicochemical
Text: Additionally, popular formularies like lecithin and glycerin were trialed. […] Thus, Glycerin alone was not useful to the invention disclosed herein which requires higher loading rates to achieve improved efficacy and a simplified industrially scalable process.

Compound | stability of formulation in trials (used as stabilizing/dispersion aid in nano and micro-emulsion formulations, long term trials) | stability of formulation in trials
OCC(O)CO [Glycerin] | very low stability unless used in very small quantities | –
pectin | – | high microbial activity
